Results as given in paper PMC10258794, “To Fold or Not to Fold: Diastereomeric Optimization of an α-Helical Antimicrobial Peptide” (Journal of Medicinal Chemistry, 2023).
Like-named read-outs stand apart in the source and are kept apart here. Non-standard residues stand in square brackets, D forms with d. Residues, ends and D or L forms follow the SMILES beside them. No end group written: not given here.

Key:
human red blood cells = experiment: Hemolysis assay (MHC)
Procedure: To determine the MHC stock solutions, 8 mg/mL peptide in PBS (pH 7.4) was prepared, and 50 μL was diluted serially by l/2 in 50 μL of PBS (pH 7.4) in a 96-well plate (Costar or Nunc, polystyrene, untreated). […] Plasma was discarded, and the pellet was re-suspended in a 15 mL Falcon tube in 5 mL of PBS. The washing was repeated three times, and the remaining pellet was re-suspended in 10 mL of PBS. The hRBC suspension (50 μL) was added to each well, and the plate was incubated at room temperature for 4 h. MHC end points were determined by visual determination of the wells after the incubation period. Controls on each plate included a blank medium control (50 μL PBS + 50 μL of hRBCs suspension) and a hemolytic activity control (mQ-deionized water 50 μL + 50 μL hRBC suspension).

S. aureus COL MRSA = tested on: S. aureus COL MRSA
In short: (§1)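 Compounds were 2-fold serially diluted from a 2 mg/mL stock and plates were incubated statically for 16–20 h at 37 °C. MIC is the lowest concentration preventing visible growth, read after MTT staining.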

E. coli W3110 = tested on: E. coli W3110
In short: as §1

P. aeruginosa PAO1 = tested on: P. aeruginosa PAO1
In short: as §1

A. baumannii ATCC19606 = tested on: A. baumannii ATCC19606
In short: as §1

[1] = tested on: Pseudomonas aeruginosa, Klebsiella pneumoniae, Acinetobacter baumannii, Escherichia coli, and methicillin-resistant Staphylococcus aureus; details: summary of Table 1
In short: as §1

K. pneumoniae NCTC418 = details: MH broth pH 7.4, 16–20 h, 37 °C
In short: as §1

[2] = EYPG vesicle leakage assay; format: biochemical; details: 10 μg/mL of compound; 10 mM TRIS, 107 mM NaCl, pH 7.4
Procedure: 5(6)-carboxyfluorescein (CF) was purchased from Sigma. EYPC, EYPG, and a Mini-Extruder were purchased from Avanti Polar Lipids. Egg PC or Egg PG thin lipid layers were prepared by evaporating a solution of 100 mg of EYPC or EYPG in 4 mL of MeOH/CHCl3 (1:1) on a rotary evaporator at room temperature and then dried in vacuo overnight. […] Extravesicular components were removed by gel filtration (Sephadex G-50) with 10 mM TRIS, 107 mM NaCl, pH 7.4 buffer. Final conditions: ∼2.5 mM PC or PG; inside: 50 mM CF, 10 mM TRIS, 10 mM NaCl, pH 7.4 buffer; outside: 10 mM TRIS, 107 mM NaCl, pH 7.4. […] The CF efflux was monitored at λem 517 nm (λex 492 nm) as a function of time after addition of the desired volume of peptide from 2 mg/mL stock in mQ water at t = 45 s, 10 and 50 μg/mL were monitored for both EYPC and EYPG. […] Fluorescence intensities were then normalized to the maximal emission intensity using I(t) = (It – I0)/(I∞ – I0) where I0 = It at peptide addition, I∞ = It at saturation of lysis.

[3] = EYPC vesicle leakage assay; format: biochemical; details: 10 μg/mL of compound; 10 mM TRIS, 107 mM NaCl, pH 7.4
In short: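 Egg PC or egg PG vesicles (~2.5 mM lipid) were loaded with 50 mM CF in 10 mM TRIS pH 7.4, with 10 mM TRIS/107 mM NaCl outside. Peptide at 10 or 50 μg/mL was added at 45 s, and CF efflux was followed at λex 492/λem 517 nm, normalized to complete lysis.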

[4] = CD spectroscopy, α-helix content; format: physicochemical; details: 5 mM DPC in 7 mM PB buffer pH 7.4, Dichroweb Contin LL set 4
Procedure: CD experiments were measured on a Jasco J-715 spectropolarimeter. All the experiments were performed using Hellma Suprasil 110-QS 0.1 cm cuvettes. For each peptide, the measurements were performed in phosphate buffer (PB, pH = 7.4, 7 mM), 10% TFE, 20% TFE, 5 mM DPC. The buffer was degassed for 10 min under high vacuum before each set of experiments. The concentration of the peptides was 0.100 mg/mL, and each sample was measured in one accumulation. The scan rate was 20 nm/min, pitch was 0.5 nm, response was 16 s, and bandwidth was 1.0 nm. The nitrogen flow was kept >8 L/min. After each measurement, the cuvettes were washed successively with milli-Q H2O and PB (pH 7.4). The baseline was recorded under the same conditions and subtracted manually. Primary CD spectra were analyzed using DichroWeb[58] and Contin-LL method (set 4).[74]

[5] = target: the molecule itself; experiment: crystal structure; co-crystallisation of the C-fucosylated peptide with LecB, sitting drop vapor diffusion, 18 °C; LecB 5 mg/mL in water with 6 mM CaCl2 and MgCl2; peptide at 5:1 molar excess over the LecB monomer
[6] = MH broth pH 7.4, 16–20 h, 37 °C

Molecule: CC(C)C[C@H](NC(=O)[C@H](CC(C)C)NC(=O)[C@H](CC(C)C)NC(=O)[C@@H](CCCCN)NC(=O)[C@H](CC(C)C)NC(=O)[C@H](CC(C)C)NC(=O)[C@@H](CCCCN)NC(=O)[C@H](CC(C)C)NC(=O)[C@H](CC(C)C)NC(=O)[C@@H](CCCCN)NC(=O)[C@@H](CCCCN)NC(=O)[C@H](CC(C)C)NC(=O)[C@H](CC(C)C)NC(=O)[C@H](CC(C)C)NC(=O)[C@@H](CCCCN)NC(=O)[C@H](CC(C)C)NC(=O)[C@H](CC(C)C)NC(=O)[C@@H](CCCCN)NC(=O)[C@H](CC(C)C)NC(=O)[C@H](CC(C)C)NC(=O)[C@@H](CCCCN)NC(=O)[C@H](N)CCCCN)C(N)=O [2ln69, (kkLLkLLkLLL)2] (H-[dK][dK]LL[dK]LL[dK]LLL[dK][dK]LL[dK]LL[dK]LLL-NH2)
- MHC (human red blood cells): < 15.6 µg/mL
- MHC (human red blood cells; pH 7.4): <15.6 µg/mL
- MIC S. aureus COL (S. aureus COL MRSA; COL): >64 µg/mL
- MIC S. aureus COL MRSA (S. aureus COL MRSA; [6]): >64 µg/mL
- MIC E. coli W3110 (E. coli W3110; [6]): >64 µg/mL
- MIC E. coli W3110 (E. coli W3110; supplementary CSV, ranges of Table 1 given as one number): >64 µg/mL
- MIC P. aeruginosa PAO1 (P. aeruginosa PAO1; [6]): >64 µg/mL
- MIC P. aeruginosa PAO1 (P. aeruginosa PAO1; PAO1): >64 µg/mL
- MIC A. baumannii ATCC19606 (A. baumannii ATCC19606; ATCC19606): >64 µg/mL
- MIC A. baumannii ATCC19606 (A. baumannii ATCC19606; [6]): >64 µg/mL
- MIC, span over the five bacterial strains [1]: entirely inactive
- MIC K. pneumoniae NCTC418 (K. pneumoniae NCTC418): >64 µg/mL
- EYPG vesicle leakage (%) [2]: 71%
- EYPC vesicle leakage (%) [3]: 74%
- α-helix content (%) [4]: 82%

B1: FHP30 (peptide)
peptide: {α‑L‑fucosyl‑acetyl}-K[dK]L[dL]K[dL]L[dK]L[dL]L
notes: also called fucosylated analogue of HP30; source: synthetic peptide (Fmoc solid-phase synthesis on Tentagel S RAM resin, preparative RP-HPLC)
- stoichiometry N [5]: 4
